{"source": "patent US20110027296A1", "about": "“ANTIBODIES FOR TREATING CANCER” (UNIVERSIDAD DE BARCELONA, priority 2008, published 2011)", "key": {"[1]": {"system": "cyclin D1, cdk4, cdk2, p21 and p27", "assay": "Cell cycle protein expression by Western blot", "type": "cell-based", "details": "100 nM SP or antibody 1/100 dilution; indicator of proliferative rate", "procedure": "FIG. 1A: For the study of the effect of SP and its inhibition on cell cycle protein expression, cells were treated with 100 nM of SP or antibody anti-SP at 1/100 dilution for 48 hours. The different pattern of protein expression was determined by Western blot. C (control), SP, αSP (anti-SP antibody). FIG. 1B: For the time-course studies cells were treated at the same concentration of antibody for the times indicated. FIG. 1C: The ratio between p27/cyclin D1 (y-axis) was determined as an indicator of the proliferative rate of the cells.\nFor the analysis of substance P treatment on HER2 and EGFR activation, cells were seeded on dishes and growth until 80% confluence. […]\n(§1) For protein extraction cells were lysated in ice-cold radioimmunoprecipitation assay buffer (Tris-HCl 50 mM, pH 7.4; NP-40 1%; Na-deoxycholate, 0.25%, NaCl 150 mM; EDTA 1 mM; PMSF 1 mM; proteinase inhibitors; Na3VO4 1 mM and NaF 1 mM) and sonicated for 10 seconds. After centrifugation (13000 g 5 min) supernatants were quantified for protein content. […] Chemiluminiscence of the bands was detected after ECL treatment (Amersham, Piscataway, N.J.) of membranes and subsequent analysis using a Fujifilm LAS3000 imaging system. Different intensities of bands were quantified using Image Gauge software, and correct Mr was compared with pre-stained protein standards (BioRad)."}, "HER2": {"system": "HER2", "assay": "HER2 phosphorylation and expression by Western blot in breast cancer cell lines", "type": "cell-based", "details": "SP 100 nM, FIG. 5", "procedure": "In FIG. 5A, to analyze the effects of SP on HER2 activation different BC cell lines were treated with SP at 100 nM for the indicated times (in min). […] In FIG. 5B, for the dose-response study MDA-MB-453 cell line was treated at different times (minutes, x-axis) with 100, 200 or 500 nM of SP, and then activation of HER2 was determined. The results are expressed as a percentage of control (y-axis), and every experiment was done in duplicate.\nIn FIG. 6A cells were treated with 500 nM of SP or anti-SP antibody at 1/100 dilution for 48 hours, and the levels of the different proteins determined by Western blot. C means control. […] In FIG. 6B for the time-course studies, SKBR3 and BT474 cell lines were treated with anti-SP antibody for 24, 48 and 72 hours and protein analyzed by Western blot. […]\nas §1, with “Different intensities of bands were quantified using Image Gauge software, and correct Mr was compared with pre-stained protein standards (BioRad).” left out"}, "EGFR": {"system": "EGFR", "assay": "EGFR phosphorylation by Western blot in MDA-MB-468 cells", "type": "cell-based", "details": "MDA-MB-468, 100 nM SP, time course", "procedure": "FIG. 8A: to analyze the effects of SP on EGFR activation MDA-MB-468 cell line was treated with SP at 100 nM for the indicated times (in min). The levels of phospho-EGFR and phospho-Erk were determined by Western blot analysis. FIG. 8B: The effects of the inhibition of SP in the activation of EGFR were determined as for HER2. C means control.\nFor the analysis of substance P treatment on HER2 and EGFR activation, cells were seeded on dishes and growth until 80% confluence. After 24 hours of fetal deprivation, cells were treated at the indicated times with 100 nM SP. Cells were wash two times with cold PBS and rapidly frozen in a −80° C. freezer until protein extraction. […]\nas §1"}, "MDA-MB-231": {"system": "MDA-MB-231", "details": "cytostatic and not cytotoxic effect; cited from earlier work"}, "BCC": {"system": "BCC", "details": "1 nM antagonist; cited from earlier work"}}, "note": "Bridge positions count the residues as written; N and C are the ends. Square brackets hold non-standard residues; d marks the D form. Peptide text beside a SMILES is read from it. * marks the point of attachment. NH(β-GlcNAc) = CC(=O)N[C@@H]1[C@@H](O)[C@H](O)[C@@H](CO)O[C@H]1N*; Dap = NC[C@H](N)C(=O)O"}
{"molecule": "Arg-Pro-Lys-Pro-Gln-Gln-Phe-Phe-Gly-Leu-Met [substance P]", "values": [{"measurement": "p27/cyclin D1 ratio", "setting": "[1]", "result": "caused a decrease in p27/cyclin D1 ratio"}, {"measurement": "transactivation of HER2", "setting": "HER2", "result": "induces transactivation of HER2"}, {"measurement": "activation of EGFR (phospho-EGFR)", "setting": "EGFR", "result": "Activation of EGFR was observed at 2 min, with a second activation point at minute 6"}]}
{"molecule": "Cc1ccc(CC(=O)N(C)[C@H](Cc2ccc3ccccc3c2)C(=O)N[C@@H]2CCCC[C@@H]2NC(=O)c2c[nH]c3ccccc23)cc1", "note": "[MEN 11467]", "values": [{"measurement": "proliferation of tumor cell line MDA-MB-231", "setting": "MDA-MB-231", "result": "induced an inhibition of proliferation"}]}
{"molecule": "CC(=O)NC1(c2ccccc2)CCN(CC[C@H](CN(C)C(=O)c2ccccc2)c2ccc(Cl)c(Cl)c2)CC1", "note": "[SR 48968]", "values": [{"measurement": "reduction of BCC colony formation", "setting": "BCC", "result": 60, "unit": "%"}]}
{"molecule": "CC(=O)N[C@@H]1[C@@H](O)[C@H](O)[C@@H](CO)O[C@H]1NC(=O)C[C@@H]1NC(=O)[C@H](CC(C)C)NC(=O)[C@@H]2CNC(=O)C[C@H](NC1=O)C(=O)N[C@@H](Cc1c[nH]c3ccccc13)C(=O)N[C@@H](Cc1ccccc1)C(=O)N2", "note": "[MEN 11420] (cyclo(D(NH(β-GlcNAc))DWF[Dap]L); lactam 2-5)", "values": [{"measurement": "proliferation of tumor cell line MDA-MB-231", "setting": "MDA-MB-231", "result": "induced an inhibition of proliferation"}]}
